Measurements taken from patent US20210128609A1, “ONCOLOGY TREATMENTS USING ZINC AGENTS” (XYLONIX IP HOLDINGS PTE. LTD., priority 2018, published 2021).

Assays:
[1] = system: HeLa cells; settings: 24h co-incubation with C004
From the text: See Goodall, M. L. et al., Developmental Cell, vol. 37, 337-349 (2016).

[2] = system: HCC-PDX xenograft; assay: HCC-PDX xenograft on Humanized NSG mice with TIL analysis (Example 11); type: in vivo; settings: tumor infiltrating leukocytes
Method: Pembrolizumab 25 mg/mL (Keytruda®, Merck® KGa) was purchased from Merck®. Isotonic zinc sulfate gamma-polyglutamate solution was prepared at pH 7.0 using Tris buffer (1 mM), at elemental zinc concentration of 1 mg/mL and gamma-polyglutamate concentration of 10 mg/mL.
All manipulations and procedures with mice were approved by Agency for Science, Technology and Research (A*STAR) Institutional Animal Care and Use Committee (IACUC). The diet provided was irradiated TEKLAD GLOBAL 18% Protein Rodent Diet (2918). Mice were housed in a sterile environment and only accessed under a BSL2 hood. Mice were fed, given water and monitored daily for health, and cages were changed weekly. NSG mice were purchased from The Jackson Laboratory and bred in a specific pathogen free facility at the Biological Resource Centre (BRC) in A*STAR, Singapore. One to three days old NSG pups were irradiated with a 55 s exposure equaling 1.1 Gy and transplanted with 1×10^5 CD34+ human fetal liver cells by intra-hepatic injections. The mice were bled at 8 weeks post-transplantation to determine the fraction of human immune cell reconstitution. Reconstitution was calculated by [% hCD45+/(% hCD45++% mCD45+)]. […]
Tumor volume was measured in two dimensions (length and width) using calipers and the tumor volume was calculated using the formula: Tumor size=(length […])×½. […]

Row | Compound | effect of inhibitor/agonist on C004-induced necrotic cytotoxicity (LDH release assay) [1] | TIL analysis, T cell involvement [2]
1 | N.S=C(S)N1CCCC1 [PDTC] | did not cause a shift in the IC50 necrotic cytotoxicity | 
2 | Pembrolizumab |  | solely dependent on CD8+ T cells
